Test results published in PubChem BioAssay AID248 (DTP/NCI, 2004).
“And” between values parts separate entries of the source, which are not always exact repeats. Identical values can stand only once. Toxic doses and inconclusive results are not listed. Cut-off read from the data, not from the text of the source: active = T/C of 150% or more; inactive = T/C below 125%.

Tested on: L1210 leukemia ip in BDF1 mice, survival T/C
Experiment: NCI In Vivo Anticancer Drug Screen. Data for tumor model L1210 Leukemia (intraperitoneal) in B6D2F1 (BDF1) mice
Settings: endpoint: mean survival time, higher = longer survival
Summary of the method: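 Each compound was tested against a transplantable tumor grown in mice. The endpoint was survival, with treated animals benchmarked against vehicle controls as a simple ratio.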

Measured: T/C

COC(=O)[C@@H](O)[C@](O)(CCC(C)C)C(=O)O[C@@H]1C(OC)=C[C@]23CCCN2CCc2cc4c(cc2[C@H]13)OCO4
inactive: dose: 0.12 mg/kg/injection, schedule: Q03HX024 (ip), vehicle: saline 98 % of control | dose: 0.25 mg/kg/injection, schedule: Q01DX009 (ip), vehicle: saline 108 % of control | dose: 0.25 mg/kg/injection, schedule: Q03HX008 (ip), vehicle: saline 106 % of control | dose: 0.25 mg/kg/injection, schedule: Q03HX016 (ip), vehicle: saline 101 % of control | dose: 0.25 mg/kg/injection, schedule: Q03HX024 (ip), vehicle: saline 107 % of control | dose: 0.5 mg/kg/injection, schedule: Q01DX006 (iv), vehicle: saline 100 % of control | dose: 0.5 mg/kg/injection, schedule: Q01DX009 (ip), vehicle: saline 107 % of control | dose: 0.5 mg/kg/injection, schedule: Q01DX009 (oral), vehicle: saline 103 % of control | dose: 0.5 mg/kg/injection, schedule: Q01DX009 (sc), vehicle: saline 104 % of control | dose: 0.5 mg/kg/injection, schedule: Q03HX008 (ip), vehicle: saline 104 % of control | dose: 0.5 mg/kg/injection, schedule: Q03HX016 (ip), vehicle: saline 108 % of control | dose: 0.5 mg/kg/injection, schedule: Q03HX024 (ip), vehicle: saline 100 % of control | dose: 0.93 mg/kg/injection, schedule: Q01DX009 (ip), vehicle: water 106 % of control | dose: 1.0 mg/kg/injection, schedule: Q01DX006 (iv), vehicle: saline 102 % of control | dose: 1.0 mg/kg/injection, schedule: Q01DX009 (ip), vehicle: saline 115 % of control | dose: 1.0 mg/kg/injection, schedule: Q01DX009 (oral), vehicle: saline 93 % of control | dose: 1.0 mg/kg/injection, schedule: Q01DX009 (sc), vehicle: saline 104 % of control | dose: 1.0 mg/kg/injection, schedule: Q03HX008 (ip), vehicle: saline 101 % of control and 106 % of control | dose: 1.0 mg/kg/injection, schedule: Q03HX016 (ip), vehicle: saline 101 % of control and 106 % of control | dose: 1.0 mg/kg/injection, schedule: Q03HX024 (ip), vehicle: saline 100 % of control and 114 % of control | dose: 1.0 mg/kg/injection, schedule: Q04DX003 (ip), vehicle: saline 106 % of control | dose: 1.85 mg/kg/injection, schedule: Q01DX009 (ip), vehicle: water 109 % of control | dose: 1.87 mg/kg/injection, schedule: Q01DX009 (ip), vehicle: water 109 % of control | dose: 1.88 mg/kg/injection, schedule: Q01DX009 (ip), vehicle: water 114 % of control | dose: 2.0 mg/kg/injection, schedule: Q01DX001 (ip), vehicle: saline 102 % of control | dose: 2.0 mg/kg/injection, schedule: Q01DX001 (iv), vehicle: saline 102 % of control | dose: 2.0 mg/kg/injection, schedule: Q01DX001 (oral), vehicle: saline 97 % of control | dose: 2.0 mg/kg/injection, schedule: Q01DX001 (sc), vehicle: saline 104 % of control | dose: 2.0 mg/kg/injection, schedule: Q01DX006 (iv), vehicle: saline 103 % of control and 108 % of control | dose: 2.0 mg/kg/injection, schedule: Q01DX009 (ip), vehicle: saline 107 % of control and 111 % of control | dose: 2.0 mg/kg/injection, schedule: Q01DX009 (oral), vehicle: saline 108 % of control | dose: 2.0 mg/kg/injection, schedule: Q01DX009 (sc), vehicle: saline 106 % of control | dose: 2.0 mg/kg/injection, schedule: Q03HX008 (ip), vehicle: saline 105 % of control and 113 % of control | dose: 2.0 mg/kg/injection, schedule: Q03HX016 (ip), vehicle: saline 96 % of control and 107 % of control | dose: 2.0 mg/kg/injection, schedule: Q03HX024 (ip), vehicle: saline 104 % of control | dose: 2.0 mg/kg/injection, schedule: Q04DX003 (ip), vehicle: saline 106 % of control | dose: 2.0 mg/kg/injection, schedule: Q08DX002 (ip), vehicle: saline 98 % of control | dose: 4.0 mg/kg/injection, schedule: Q01DX001 (ip), vehicle: saline 106 % of control | dose: 4.0 mg/kg/injection, schedule: Q01DX001 (iv), vehicle: saline 101 % of control | dose: 4.0 mg/kg/injection, schedule: Q01DX001 (oral), vehicle: saline 100 % of control | dose: 4.0 mg/kg/injection, schedule: Q01DX001 (sc), vehicle: saline 114 % of control | dose: 4.0 mg/kg/injection, schedule: Q01DX006 (iv), vehicle: saline 103 % of control and 111 % of control | dose: 4.0 mg/kg/injection, schedule: Q01DX009 (ip), vehicle: saline 116 % of control and 124 % of control | dose: 4.0 mg/kg/injection, schedule: Q01DX009 (oral), vehicle: saline 113 % of control and 114 % of control and 120 % of control | dose: 4.0 mg/kg/injection, schedule: Q01DX009 (sc), vehicle: saline 113 % of control | dose: 4.0 mg/kg/injection, schedule: Q03HX008 (ip), vehicle: saline 114 % of control | dose: 4.0 mg/kg/injection, schedule: Q03HX016 (ip), vehicle: saline 103 % of control | dose: 4.0 mg/kg/injection, schedule: Q04DX003 (ip), vehicle: saline 110 % of control and 113 % of control | dose: 4.0 mg/kg/injection, schedule: Q08DX002 (ip), vehicle: saline 108 % of control | dose: 5.0 mg/kg/injection, schedule: Q01DX009 (ip), vehicle: saline 116 % of control | dose: 8.0 mg/kg/injection, schedule: Q01DX001 (ip), vehicle: saline 104 % of control and 105 % of control | dose: 8.0 mg/kg/injection, schedule: Q01DX001 (iv), vehicle: saline 106 % of control and 115 % of control | dose: 8.0 mg/kg/injection, schedule: Q01DX001 (oral), vehicle: saline 100 % of control | dose: 8.0 mg/kg/injection, schedule: Q01DX001 (sc), vehicle: saline 110 % of control and 115 % of control | dose: 8.0 mg/kg/injection, schedule: Q01DX006 (iv), vehicle: saline 120 % of control | dose: 8.0 mg/kg/injection, schedule: Q01DX009 (oral), vehicle: saline 114 % of control | dose: 8.0 mg/kg/injection, schedule: Q01DX009 (sc), vehicle: saline 122 % of control | dose: 8.0 mg/kg/injection, schedule: Q04DX003 (ip), vehicle: saline 101 % of control and 107 % of control | dose: 8.0 mg/kg/injection, schedule: Q08DX002 (ip), vehicle: saline 110 % of control | dose: 10.0 mg/kg/injection, schedule: Q01DX009 (ip), vehicle: saline 116 % of control | dose: 16.0 mg/kg/injection, schedule: Q01DX001 (ip), vehicle: saline 108 % of control and 112 % of control | dose: 16.0 mg/kg/injection, schedule: Q01DX001 (iv), vehicle: saline 106 % of control and 107 % of control | dose: 16.0 mg/kg/injection, schedule: Q01DX001 (oral), vehicle: saline 107 % of control and 112 % of control | dose: 16.0 mg/kg/injection, schedule: Q01DX001 (sc), vehicle: saline 111 % of control and 118 % of control | dose: 16.0 mg/kg/injection, schedule: Q01DX006 (iv), vehicle: saline 122 % of control | dose: 16.0 mg/kg/injection, schedule: Q01DX009 (sc), vehicle: saline 89 % of control | dose: 16.0 mg/kg/injection, schedule: Q04DX003 (ip), vehicle: saline 100 % of control | dose: 16.0 mg/kg/injection, schedule: Q08DX002 (ip), vehicle: saline 106 % of control and 111 % of control | dose: 20.0 mg/kg/injection, schedule: Q01DX009 (ip), vehicle: saline 115 % of control | dose: 32.0 mg/kg/injection, schedule: Q01DX001 (ip), vehicle: saline 110 % of control | dose: 32.0 mg/kg/injection, schedule: Q01DX001 (oral), vehicle: saline 108 % of control and 118 % of control | dose: 32.0 mg/kg/injection, schedule: Q04DX003 (ip), vehicle: saline 107 % of control | dose: 32.0 mg/kg/injection, schedule: Q08DX002 (ip), vehicle: saline 102 % of control

CC(=O)CC(=O)Nc1cccnc1
inactive: dose: 100.0 mg/kg/injection, schedule: Q01DX001 (ip), vehicle: carboxymethylcellulose (CMC) 100 % of control | dose: 200.0 mg/kg/injection, schedule: Q01DX001 (ip), vehicle: carboxymethylcellulose (CMC) 96 % of control | dose: 400.0 mg/kg/injection, schedule: Q01DX001 (ip), vehicle: carboxymethylcellulose (CMC) 100 % of control

O=C(CCCC(=O)N/N=C/c1cc(Cl)cc(Cl)c1O)N/N=C\c1cc(Cl)cc(Cl)c1O
inactive: dose: 50.0 mg/kg/injection, schedule: Q01DX001 (ip), vehicle: saline 100 % of control | dose: 100.0 mg/kg/injection, schedule: Q01DX001 (ip), vehicle: saline 97 % of control | dose: 200.0 mg/kg/injection, schedule: Q01DX001 (ip), vehicle: saline 100 % of control | dose: 400.0 mg/kg/injection, schedule: Q01DX001 (ip), vehicle: saline 97 % of control
